From patent US8673913B2, “SHP-2 phosphatase inhibitor” (Case Western Reserve University, priority 2009, dated 2014) come the findings set out here.

For assay [1], the target named is T1, GST-LAR PTP domain (PTPRF) (Homo sapiens, UniProt P10586).
T1 construct: GST-LAR PTP domain purchased from Biomol International; purchased Biomol International, L.P. (Plymouth Meeting, Pa.)
T1 sequence (P10586 1352-1607 limits assumed): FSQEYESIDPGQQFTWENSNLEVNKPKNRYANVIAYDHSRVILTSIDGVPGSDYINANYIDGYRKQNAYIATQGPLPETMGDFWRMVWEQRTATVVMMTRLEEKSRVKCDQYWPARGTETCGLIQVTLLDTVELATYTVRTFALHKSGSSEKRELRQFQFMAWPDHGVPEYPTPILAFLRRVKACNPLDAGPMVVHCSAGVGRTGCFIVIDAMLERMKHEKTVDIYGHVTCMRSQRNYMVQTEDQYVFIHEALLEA
As to the kind of experiment: in vitro phosphatase assay, LAR. In kind it is biochemical. The procedure:
Candidate compounds were screened using the in vitro protein tyrosine phosphatase (PTP) assay kit (Sigma, St. Lois, Mo.). […] The assay determines free phosphate generated by dephosphorylation of the PTP substrate using the Malachite Green reagent. Briefly, 0.5 μg of GST-SHP-2 PTP was incubated in 40 μL assay buffer (25 mM Tris-HCl, PH7.4, 50 mM NaCl, 5 mM DTT, and 2.5 mM EDTA) with test compounds at various concentrations or DMSO at room temperature for 30 min. The PTP substrate was then added to a final concentration of 0.2 mM. The system was incubated at 30° C. for 30 min. Finally, 50 μl of Malachite Green solution was added and OD620 was measured after 5 min. In the phosphatase assays for SHP-1, CD45, TC-PTP, PTP-MEG2 (PTPN9), and LAR (PTPRF), procedures were similar, with the exception that GST-SHP-1, GST-CD45 cytoplasmic domain, GST-TC-PTP, GST-PTP-MEG2 PTP domain, and GST-LAR PTP domain purchased from Biomol International, L.P. (Plymouth Meeting, Pa.) were used instead as the enzymes.

In assay [2] the test system is myeloid progenitors, wildtype and SHP-2 E76K. Briefly: hematopoietic progenitor cell colony formation assay (CFU-GM). The class given is cell-based, mouse. On the procedure: To determine cellular response of myeloid progenitors to IL-3, bone marrow cells (5×10^4 cells/ml) freshly harvested from C57BL6 mice were assayed for colony forming units (CFUs) in 0.9% methylcellulose IMDM medium containing 30% FBS, glutamine (10^−4 M), β-mercaptoethanol (3.3×10^−5 M), and IL-3 (10 ng/ml). After 7 days of culture at 37° C. in a humidified 5% CO2 incubator, hematopoietic cell colonies (primarily CFU-GM) were counted under an inverted microscope.
FIG. 13 illustrates A). […] Bone marrow cells were harvested from wildtype and mutant mice with SHP-2 E76K mutation. IL-3 induced myeloid progenitor cell colony (CFU-GM) formation assays were performed as described in the Examples in the presence of various concentrations of active compounds. Shown are the results of a representative compound #324. B). Inhibition of growth factor-independent colony formation of myeloid progenitors with SHP-2 activating mutation E76K by active compounds. Bone marrow cells were harvested from wildtype and mutant mice with SHP-2 E76K mutation. The cells were assayed for CFU-GM without cytokines in the presence of various concentrations of active compounds. Shown are the results of a representative compound #324.

For the molecule `Cc1cc(C)c2[nH]c3nc(SCC(=O)Nc4cccc5ccccc45)nnc3c2c1` [#324], the IC50 – broadly, the concentration that inhibits the measured activity by half – in assay [1] came to 144 µM. In addition, the “growth factor-independent colony formation of E76K myeloid progenitors” value in assay [2] (CFU-GM without cytokines) was “Inhibition”. Further, the “sensitivity of E76K myeloid progenitors versus wild type (IL-3 induced CFU-GM)” value in assay [2] (IL-3 induced colony formation) is “more sensitive”.
